Results on 16 compounds are retold here after patent US20120214846A1, “HEXAHYDROCYCLOPENTYL[F]INDAZOLE PYRIDYL ETHANOLS AND DERIVATIVES THEREOF AS SELECTIVE GLUCOCORTICOID RECEPTOR MODULATORS” (MERCK SHARP & DOHME CORP, priority 2009, published 2012).

Like-named read-outs stand apart in the source and are kept apart here.

In series [1] the target is T1, GR (Homo sapiens, UniProt P04150).
T1 sequence (P04150 1-777): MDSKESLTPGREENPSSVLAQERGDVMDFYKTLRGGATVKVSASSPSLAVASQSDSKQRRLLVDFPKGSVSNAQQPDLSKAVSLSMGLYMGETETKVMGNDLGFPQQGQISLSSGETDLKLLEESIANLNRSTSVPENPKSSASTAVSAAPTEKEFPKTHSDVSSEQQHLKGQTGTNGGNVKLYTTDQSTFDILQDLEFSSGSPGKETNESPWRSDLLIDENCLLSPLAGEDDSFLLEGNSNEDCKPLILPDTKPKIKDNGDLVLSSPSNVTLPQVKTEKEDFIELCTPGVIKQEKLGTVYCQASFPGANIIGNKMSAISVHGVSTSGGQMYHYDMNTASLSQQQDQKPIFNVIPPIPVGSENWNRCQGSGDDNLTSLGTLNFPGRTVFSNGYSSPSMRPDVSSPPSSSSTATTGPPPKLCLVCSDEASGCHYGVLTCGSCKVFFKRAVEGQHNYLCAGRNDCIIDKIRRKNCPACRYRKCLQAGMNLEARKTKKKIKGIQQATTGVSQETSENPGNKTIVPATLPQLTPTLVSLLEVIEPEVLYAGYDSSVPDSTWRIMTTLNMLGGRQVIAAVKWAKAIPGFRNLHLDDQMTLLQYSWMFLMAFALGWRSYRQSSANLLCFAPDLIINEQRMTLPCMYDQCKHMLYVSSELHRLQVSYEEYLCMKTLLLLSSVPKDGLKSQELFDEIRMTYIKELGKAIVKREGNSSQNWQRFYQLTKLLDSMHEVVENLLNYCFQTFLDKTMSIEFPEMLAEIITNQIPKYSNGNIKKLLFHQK
In words: Trans-Activation Modulation of Glucocorticoid Receptor Assay (GRAMMER), MMTV-LUC reporter, A549 cells. On the set-up: endogenous in cells. The format is cell-based. An excerpt: Trans-Activation Modulation of Glucocorticoid Receptor Assay
This assay assesses the ability of test compounds to control transcription from the MMTV-LUC reporter gene in lung adenocarcinoma A549 cells or HeLa cells, a human […] cell line that naturally expresses the human GR. The assay measures induction of a modified MMTV LTR/promoter linked to the LUC reporter gene.
The routine transient assay consists of plating 7,000-25,000 cells/well of a white, clear-bottom 96-well plate. Alternatively, 384-well plates can be used at a cell concentration of 10,000/well. The media that the cells are plated in is “exponential growth medium” which consists of phenol red-free RPMI1640 containing 10% FBS, 4 mM L-glutamine, 20 mM HEPES, 10 ug/mL human insulin, and 20 ug/mL gentamicin. Incubator conditions are 37° C. and 5% CO2. The transfection is done in batch mode. The cells are trypsinized and counted to the right cell number in the proper amount of fresh media. It is then gently mixed with the FuGene6/DNA mix and plated onto the 96 or 384-well plate, all the wells receive 100 uL or 40 uL, respectively, of medium+lipid/DNA complex then incubated 37° C. overnight. The transfection cocktail consists of serum-free OptiMEM, FuGene6 reagent and DNA. The manufacturer's (Roche Biochemical) protocol for cocktail setup is as follows: The lipid to DNA ratio is approximately 2.5:1 and the incubation time is 20 min at room temperature. Sixteen to 24 hours after transfection, the cells are treated with dexamethasone to a final concentration of 10 nM as well as the compound of interest, such that final DMSO (vehicle) concentration is equal to or less than 1%. Each plate also contains samples that are treated with 10 nM dexamethasone alone, which is used as the 100% activity control. The cells are exposed to the compounds for 24 hours. After 24 hours, the cells are lysed by a Promega cell culture lysis buffer for approximately 30 min and then the luciferase activity in the extracts is assayed in the 96-well format luminometer. In 384-well format, Steady-Glo (Promega) or Steady-Lite (PerkinElmer) can be used by adding an equal volume of reagent to the media present in each well. […] Antagonist activity is calculated by determining the decrease in dexamethasone-induced activity in response to compound treatment relative to samples that were treated with dexamethasone alone. […] This transactivation assay can be performed in an agonist and antagonist mode to identify these different activities.
The action of compounds is also tested in an antagonist mode (Anti-GRAMMER) in which the cells are treated with medium containing an agonist such as 10 nM DEX and the ability to agents to inhibit the activation by an agonist is measured.

The subject of series [2] is female Sprague-Dawley rats, oxazolone (OX) contact dermatitis. Nature of the series: In Vivo Inflammation Assay (oxazolone contact dermatitis model). On the set-up: key to Inflammation Assay Glucose Effect / GL *: +: the glucose level increased compared to vehicle; −: the glucose level decreased compared to vehicle. The conditions noted are these: for Inflammation Assay Glucose Effect / Inflammation Assay Anti-inflammatory Effect: rat; for Inflammation Assay Glucose Effect: glucose level compared to vehicle; for Inflammation Assay Anti-inflammatory Effect: relative to control compound; for GL *: Table 4, literature compounds, glucose effect. The method, then: In Vivo Inflammation Assay
Intact adult (6 month old) female Sprague-Dawley rats are used in the oxazolone (OX) contactdermatitis model. Rats were sensitized on the ventral abdomen with OX on Day 0. On Days 7 and 9, a randomly-selected ear was challenged (same ear each time) with OX; the other was treated with vehicle. Daily treatment begun on Day 7 and continued for 7d with test compounds at different doses and 1.3 mpk 6-methlyprednisolone or 0.1 mpk DEX as positive controls. The thickness of both ears are measured on Days 11 and 14. Necropsy occurred on Day 14. The rat is first weighed, then anesthetized in a CO2 chamber until near death. Approximately 5 ml whole blood is obtained by cardiac puncture. The rat is then examined for certain signs of death and completeness. Tissues are dissected in a highly stylized fashion. Then the following endpoints were evaluated: a) inhibiting ear inflammation induced by oxazalone, b) raising serum insulin, c) reducing serum ACTH, d) reducing spleen weight, e) reducing skin thickness, f) reducing body weight, g) increasing expression of bone-related genes with potential relationship to negative glucocorticoid effects on bone; e) changes in molecular markers that correlate with skin inflammation, skin thinning, muscle atrophy and glucose metabolism in liver. All blood samples were collected between 1330-1530 hours, ˜4-5 hrs after the last compound treatment.
Primary data for this assay are left and right ear thickness. Inter-ear thickness difference (etd) is used for the estimating the level of inflammation and effectiveness of the compounds is determined by their ability to reduce the increase the thickness of the inflamed ear. Back of the rat skin thickness, spleen weight, serum insulin as well as the effects of gcs on the expression of molecular markers in skin inflammation, skin atrophy, muscle atrophy and glucose metabolism in liver are measured. Data are analyzed by anova plus fisher plsd post-hoc test to identify intergroup differences.

[3] abbreviates: A549 cells, inflection point, read-out: Transactivation A549 Cells GRAMMER IP.
Where [4] appears, read: A549 cells, relative to 300 nM dexamethasone.
Setting [5] is: A549, A549 cells, relative to 300 nM dexamethasone, read-out: Transactivation A549 Cells GRAMMER Emax.
[6] abbreviates: A549, Table 4, literature compounds, read-out: GRAMMER EMAX.
Setting [7] is: Table 4, literature compounds, read-out: GRAMMER IP.

Consider `Cc1cccnc1C(O)C[C@]1(O)CCC2=Cc3c(cnn3-c3ccc(F)cc3)C[C@@]21C` (single isomer, unassigned) [Example 1a], for which the EC50 in series [1] (setting [3]) was found to be 116 nM. In series [1] (setting [4]), the “Transactivation A549 Cells GRAMMER Emax” value is given as 64.8%. Moreover, in series [2], the “Inflammation Assay Glucose Effect” value is reported as “−” and the “Inflammation Assay Anti-inflammatory Effect” value is on record as “+ (the anti-inflammatory activity was equal to or greater than 40% of the effect generated by the control compound)”.

In the case of `COc1ccnc(C(O)C[C@]2(O)CCC3=Cc4c(cnn4-c4ccc(F)cc4)C[C@@]32C)c1` (stereo partly drawn) [Example 3, (4αS,5R)-1-(4-fluorophenyl)-5-[2-hydroxy-2-(4-methoxypyridin-2-yl)ethyl]-4α-methyl-1,4,4α,5,6,7-hexahydrocyclopenta[f]indazol-5-ol], the Emax (in general, the greatest response seen or fitted, relative to the assay's reference) in series [1] (setting [5]) amounted to 21.6%. For the same compound, in series [1] (setting [3]), the EC50 was found to be 132 nM. In addition, in series [2], the “Inflammation Assay Glucose Effect” value is recorded as “+” and the “Inflammation Assay Anti-inflammatory Effect” value was “+ (the anti-inflammatory activity was equal to or greater than 40% of the effect generated by the control compound)”.

With `C[C@]12Cc3cnn(-c4ccc(F)cc4)c3C=C1CC[C@@]2(O)CC(O)c1ccccn1` (single isomer, unassigned) [Example 2b], in series [1] (setting [3]), the EC50 came out at 255 nM. For the same compound, the “Transactivation A549 Cells GRAMMER Emax” value in series [1] (setting [4]) amounted to 26.8%. Also, in series [2], the “Inflammation Assay Glucose Effect” value is recorded as “−” and the “Inflammation Assay Anti-inflammatory Effect” value is “+ (the anti-inflammatory activity was equal to or greater than 40% of the effect generated by the control compound)”.

With `C[C@]12Cc3cnn(-c4ccc(F)cc4)c3C=C1CCC[C@@H]2[C@@H](O)Cc1ccccc1` [Ex. 22 WO 03/086294 A2, reference compound], the maximal response (Emax) in series [1] (setting [6]) stood at 61%. In addition, in series [1] (setting [7]), the EC50 was 122 nM. Further, in series [2], the “GL *” value is reported as “−”.

In the case of `C[C@]12Cc3cnn(-c4ccc(F)cc4)c3C=C1CC[C@@]2(O)CC(O)c1cc(Cl)ccn1` (single isomer, unassigned) [Example 8b], in series [1] (setting [3]), the EC50 came out at 26.7 nM. Also, in series [1] (setting [4]), the “Transactivation A549 Cells GRAMMER Emax” value came to 25.2%. In series [2], the “Inflammation Assay Glucose Effect” value is given as “+” and the “Inflammation Assay Anti-inflammatory Effect” value is recorded as “+ (the anti-inflammatory activity was equal to or greater than 40% of the effect generated by the control compound)”.

For `C[C@]12Cc3cnn(-c4ccc(F)cc4)c3C=C1CC[C@@]2(O)C#Cc1ccccc1` [Ex. 1 WO 04/075840 A2, reference compound], the Emax in series [1] (setting [6]) was 6.19%. The EC50 in series [1] (setting [7]) was determined as 385 nM. Also, the “GL *” value in series [2] is listed as “−”.

Consider `C[C@]12Cc3cnn(-c4ccc(F)cc4)c3C=C1CC[C@@]2(O)CC(O)c1ccc(F)cn1` (single isomer, unassigned) [Example 7b], for which, in series [1] (setting [3]), the EC50 stood at 85.5 nM. In addition, the “Transactivation A549 Cells GRAMMER Emax” value in series [1] (setting [4]) is listed as 16.6%.

For `C[C@]12Cc3cnn(-c4ccc(F)cc4)c3C=C1CC[C@@]2(O)CC(O)c1cc(Cl)ccn1` (single isomer, unassigned) [Example 8a], in series [1] (setting [5]), the Emax turned out to be 21.4%. Besides, the EC50 in series [1] (setting [3]) was determined as 129 nM. Further, in series [2], the “Inflammation Assay Glucose Effect” value is listed as “+” and the “Inflammation Assay Anti-inflammatory Effect” value is recorded as “+ (the anti-inflammatory activity was equal to or greater than 40% of the effect generated by the control compound)”.

On to `C[C@]12Cc3cnn(-c4ccc(F)cc4)c3C=C1CC[C@@]2(O)CC(O)c1cc(C(F)(F)F)ccn1` (single isomer, unassigned) [Example 5b], for which, in series [1] (setting [3]), the EC50 stood at 158 nM. Also, in series [1] (setting [4]), the “Transactivation A549 Cells GRAMMER Emax” value is reported as 18.1%.

In the case of `Cc1ccnc(C(O)C[C@]2(O)CCC3=Cc4c(cnn4-c4ccc(F)cc4)C[C@@]32C)c1` (stereo partly drawn) [Example 11, (4αS,5R)-1-(4-fluorophenyl)-5-[2-hydroxy-2-(4-methylpyridin-2-yl)ethyl]-4α-methyl-1,4,4α,5,6,7-hexahydrocyclopenta[f]indazol-5-ol], the Emax in series [1] (setting [5]) was found to be 27.7%. The EC50 in series [1] (setting [3]) is 162 nM. In series [2], the “Inflammation Assay Glucose Effect” value is reported as “+” and the “Inflammation Assay Anti-inflammatory Effect” value is given as “+ (the anti-inflammatory activity was equal to or greater than 40% of the effect generated by the control compound)”.

`C[C@]12Cc3cnn(-c4ccc(F)cc4)c3C=C1CC[C@@]2(O)CC(O)c1cc(Br)ccn1` (single isomer, unassigned) [Example 10b]: in series [1] (setting [3]), the EC50 worked out at 80 nM. Moreover, the “Transactivation A549 Cells GRAMMER Emax” value in series [1] (setting [4]) is on record as 19.8%.

As for `C[C@]12Cc3cnn(-c4ccc(F)cc4)c3C=C1CC[C@@]2(O)CC(O)c1cc(C(F)(F)F)ccn1` (single isomer, unassigned) [Example 5a], the Emax in series [1] (setting [5]) is 15.1%. In series [1] (setting [3]), the EC50 is 52.1 nM.

Regarding `C[C@]12Cc3cnn(-c4ccc(F)cc4)c3C=C1CC[C@@]2(O)CC(O)c1ncccc1F` (stereo partly drawn) [Example 4, (4αS,5R)-1-(4-fluorophenyl)-5-[2-(3-fluoropyridin-2-yl)-2-hydroxyethyl]-4α-methyl-1,4,4α,5,6,7-hexahydrocyclopenta[f]indazol-5-ol], the Emax in series [1] (setting [5]) was 17.5%. For the same compound, the EC50 in series [1] (setting [3]) stood at 698 nM.

In the case of `C[C@]12Cc3cnn(-c4ccc(F)cc4)c3C=C1CC[C@@]2(O)CC(O)c1cc(Br)ccn1` (single isomer, unassigned) [Example 10a], the EC50 in series [1] (setting [3]) was determined as 17.4 nM. Also, the “Transactivation A549 Cells GRAMMER Emax” value in series [1] (setting [4]) is given as 8.2%.

As to `C[C@]12Cc3cnn(-c4ccc(F)cc4)c3C=C1CC[C@@]2(O)CC(O)c1ccc(C(F)(F)F)cn1` (stereo partly drawn) [Example 6, (4αS,5R)-1-(4-fluorophenyl)-5-{2-hydroxy-2-[5-(trifluoromethyl)pyridin-2-yl]ethyl}-4α-methyl-1,4,4α,5,6,7-hexahydrocyclopenta[f]indazol-5-ol], in series [1] (setting [5]), the Emax turned out to be 18.6%. Further, in series [1] (setting [3]), the EC50 is 328 nM.

In the case of `C[C@]12Cc3cnn(-c4ccc(F)cc4)c3C=C1CC[C@@]2(O)CC(O)c1ccc(F)cn1` (single isomer, unassigned) [Example 7a], the Emax in series [1] (setting [5]) came to 18.6%. Moreover, in series [1] (setting [3]), the EC50 was determined as 320 nM.
